Source: paper PMC5871875 (Journal of medicinal chemistry, 2017)
One block for each molecule: values may come before it.

Key:
cathepsin-L = cathepsin-L (Homo sapiens, UniProt P07711); assay: Inhibition specificity assay, cathepsin-L; type: biochemical
AEP [1] = biological target: T1, AEP (Homo sapiens, UniProt Q99538); assay: IC50 assay against pure AEP; type: biochemical
T1 sequence (Q99538 18-323 limits assumed): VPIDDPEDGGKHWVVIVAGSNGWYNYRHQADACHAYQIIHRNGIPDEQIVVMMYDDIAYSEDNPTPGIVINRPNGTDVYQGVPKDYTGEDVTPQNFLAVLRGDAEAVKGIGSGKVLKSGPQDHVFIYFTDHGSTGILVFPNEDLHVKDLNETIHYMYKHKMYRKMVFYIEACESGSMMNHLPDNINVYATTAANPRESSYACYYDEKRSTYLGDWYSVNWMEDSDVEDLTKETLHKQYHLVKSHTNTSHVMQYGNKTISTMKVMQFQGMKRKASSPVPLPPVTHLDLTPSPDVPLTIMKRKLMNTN

[2] = test system: major cytochrome P450 isozymes; conditions: cited from earlier work
CaCo-2 cells = assay: Caco-2 permeability assay; type: in vitro ADME
AEP [3] = biological target: T1, AEP; assay: Inhibition kinetics assay of AEP
AEP [4] = biological target: T1, AEP; assay: Time course inactivation assay of AEP; type: biochemical; conditions: nonlinear progress curves
[5] = in the presence or absence of NADPH; cited from earlier work
purified, active AEP = biological target: T2, purified, active AEP (Homo sapiens, UniProt Q99538); assay: SAR analysis: residual activity of purified, active AEP; conditions: 1 μM compound, 50 nM AEP, 5 μM substrate peptide
T2 sequence (Q99538 18-323 limits assumed): T1 sequence (Q99538 18-323 limits assumed)

[6] = Toxicity observations in treated tumor-bearing mice; type: in vivo, nude mice; conditions: 3 or 10 mg/kg oral, 42 days
[7] = test system: endogenous MMP-2 cleavage; assay: Gelatin zymography: endogenous MMP-2 cleavage in MDA-MB-231 cells; type: cell-based, human; conditions: MDA-MB-231, 1, 2, 5 and 10 μM
MDA-MB-231 cells [8] = assay: Cell proliferation/viability; type: cell-based, human; conditions: MDA-MB-231, doses of the MMP-2 cleavage experiment (1-10 μM)
MDA-MB-231 cells [9] = assay: In vivo spontaneous metastasis assay; set-up: species or system nude mice; conditions: 42 days

cathepsin-L, sequence (P07711 114-333, species assumed): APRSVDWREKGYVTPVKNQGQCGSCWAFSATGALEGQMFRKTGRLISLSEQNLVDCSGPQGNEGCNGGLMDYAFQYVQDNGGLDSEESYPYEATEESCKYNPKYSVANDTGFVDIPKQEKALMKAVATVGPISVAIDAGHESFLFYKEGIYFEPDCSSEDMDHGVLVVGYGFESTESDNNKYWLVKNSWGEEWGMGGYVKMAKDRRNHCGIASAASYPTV

inhibition of cathepsin-L (cathepsin-L): able to inhibit | increased potency against AEP compared to compound 38 (AEP [1]): about 2 fold | IC50 against AEP (AEP [1]; 10 μM Cbz-Ala-Ala-Asn-AMC, 50 nM AEP): submicromolar
Structure (SMILES): Cn1c(=O)c2c(nc(S)n2C)n(C)c1=O [38p]

Caco-2 cell permeability (in words) (CaCo-2 cells): minimal | mechanism of inhibition (AEP [3]): competitively inhibits | binding behaviour from time course inactivation (AEP [4]): slow-binding inhibitor
Structure (SMILES): Cn1c(=O)[nH]c(=O)c2c1nc(S)n2CC(O)COc1ccc(Cl)cc1 (centres unmarked) [compound 38]
inhibition of major cytochrome P450 isozymes [2]: did not significantly inhibit | stability in liver microsomes [5]: stable

loss in activity relative to parent compound 38 (purified, active AEP): > 2 fold
Structure (SMILES): Cn1c(=O)[nH]c(=O)c2c1nc(S)n2C[C@H](O)COc1ccccc1 [compound 38k]

Structure (SMILES): CCn1c(=O)c2c(nc(S)n2C)n(C)c1=O [compound 38u]
complete blood count (CBC) versus vehicle [6]: no significant difference | pathological examination of major organs (kidney, liver, bone marrow) [6]: did not exhibit any significant amount of toxicity | size of the liver versus vehicle [6]: remained similar | size of the spleen versus control [6]: slight increase | toxicity by body weight versus control [6]: no significant toxicity | endogenous MMP-2 cleavage [7]: inhibited in a dose-dependent manner | cell viability (MDA-MB-231 cells [8]): not affected | inhibition of cathepsin-L (cathepsin-L): able to inhibit | number of metastatic lung nodules (MDA-MB-231 cells [9]; 3 mg/kg oral gavage): significantly decreased | lung metastasis (nodules) (MDA-MB-231 cells [9]; 10 mg/kg oral gavage): almost completely prevented | mammary tumor weight or volume versus control (MDA-MB-231 cells [9]; 3 or 10 mg/kg oral, data not shown): no significant difference
